Results reported in ChEMBL document CHEMBL4610101, “Antimalarial Eudesmane Sesquiterpenoids from Dobinea delavayi” (2020).
Active and inactive are the calls of the source. The rule behind the calls is not given here.

Columns and labels:
[1] = test system: Plasmodium yoelii; assay: Disruption of mitochondrial membrane potential in Plasmodium yoelii BY265RFP infected in mouse erythrocytes assessed as red/green fluorescence ratio at 0.3 uM incubated for 12 hrs by JC1 staining based laser-scanning confocal microscopic analysis (reference value: 1.55 +/- 0.08); format: functional
[2] = test system: Mus musculus; assay: (§1) Immunomodulatory activity in Kunming mouse infected with Plasmodium yoelii BY265RFP assessed as proportion of splenic CD4+CD25+ Tregs within CD4+ cells at 30 mg/kg/day, ig administered for 4 days starting from 3 hrs post infection and measured at 4 days post infection by FACSCalibur flow cytometry (reference value: 11.2 +/- 0.5%); format: functional
[3] = test system: Plasmodium yoelii; assay: Disruption of mitochondrial membrane potential in Plasmodium yoelii BY265RFP infected in mouse erythrocytes assessed as red/green fluorescence ratio at 3 uM incubated for 12 hrs by JC1 staining based laser-scanning confocal microscopic analysis (reference value: 1.55 +/- 0.08); format: functional
[4] = test system: Plasmodium yoelii; assay: (§2) Antimalarial activity against Plasmodium yoelii BY265RFP infected in Kunming mouse assessed as inhibition of parasitemia at 15 mg/kg/day, ig administered for 4 days starting from 3 hrs post infection and measured at 4 days post infection by Wright-Giemsa staining based microscopic assay relative to control; format: functional; details: po
[5] = test system: Plasmodium yoelii; assay: Disruption of mitochondrial membrane potential in Plasmodium yoelii BY265RFP infected in mouse erythrocytes assessed as red/green fluorescence ratio at 0.03 uM incubated for 12 hrs by JC1 staining based laser-scanning confocal microscopic analysis (reference value: 1.55 +/- 0.08); format: functional
[6] = test system: Plasmodium yoelii; assay: Antimicrobial activity against Plasmodium yoelii BY265RFP infected in Kunming mouse assessed as increase in hemoglobin level at 15 to 30 mg/kg/day, ig administered for 4 days starting from 3 hrs post infection and measured at 5 days post infection; format: functional, organism-based
[7] = test system: Mus musculus; assay: Immunomodulatory activity in Kunming mouse infected with Plasmodium yoelii BY265RFP assessed as increase in IL-12 at 30 mg/kg/day, ig administered for 4 days starting from 3 hrs post infection and measured at 4 days post infection by FACSCalibur flow cytometry; format: functional, organism-based
[8] = test system: Mus musculus; assay: Immunomodulatory activity in Kunming mouse infected with Plasmodium yoelii BY265RFP assessed as increase in IFN-gamma at 30 mg/kg/day, ig administered for 4 days starting from 3 hrs post infection and measured at 4 days post infection by FACSCalibur flow cytometry; format: functional, organism-based
[9] = test system: Plasmodium yoelii; assay: as §2, with “30” for “15”; format: functional; details: po
[10] = test system: Plasmodium yoelii; assay: Antimicrobial activity against Plasmodium yoelii BY265RFP infected in Kunming mouse assessed as recovery of erythrocyte at 15 to 30 mg/kg/day, ig administered for 4 days starting from 3 hrs post infection and measured at 4 days post infection; format: functional, organism-based
[11] = test system: Mus musculus; assay: Immunomodulatory activity in Kunming mouse infected with Plasmodium yoelii BY265RFP assessed as decrease in IgG at 30 mg/kg/day, ig administered for 4 days starting from 3 hrs post infection and measured at 4 days post infection by FACSCalibur flow cytometry; format: functional, organism-based
[12] = test system: Plasmodium yoelii; assay: Antimicrobial activity against Plasmodium yoelii BY265RFP infected in Kunming mouse assessed as relief from hepatomegaly at 15 to 30 mg/kg/day, ig administered for 4 days starting from 3 hrs post infection and measured at 4 days post infection; format: functional, organism-based
[13] = test system: Mus musculus; assay: as §1, with “10” for “30”; format: functional
[14] = test system: Mus musculus; assay: Immunomodulatory activity in Kunming mouse infected with Plasmodium yoelii BY265RFP assessed as decrease in IL-10 at 30 mg/kg/day, ig administered for 4 days starting from 3 hrs post infection and measured at 4 days post infection by FACSCalibur flow cytometry; format: functional, organism-based
[15] = test system: Mus musculus; assay: as §1, with “15” for “30”; format: functional
[16] = test system: Plasmodium yoelii; assay: Antimicrobial activity against Plasmodium yoelii BY265RFP infected in Kunming mouse assessed as recovery of abdominal temperature at 15 to 30 mg/kg/day, ig administered for 4 days starting from 3 hrs post infection and measured at 5 days post infection; format: functional, organism-based
[17] = test system: Plasmodium yoelii; assay: Induction of intracellular ROS production in Plasmodium yoelii BY265RFP infected in mouse erythrocytes at 0.03 to 3 uM after 12 hrs by DCFH-DA staining based laser-scanning confocal microscopic analysis; format: functional, organism-based
[18] = test system: Hemozoin; assay: Inhibition of beta-hematin formation incubated for 5 hrs
[19] = test system: Plasmodium yoelii; assay: as §2, with “50” for “15”; format: functional; details: po
[20] = test system: Plasmodium yoelii; assay: as §2, with “10” for “15”; format: functional; details: po

Q: What does the source list for `C/C=C(/C)C(=O)O[C@H]1CC[C@]2(C)C[C@@H](C(C)=O)C[C@H]2[C@]1(C)OC(C)=O`?
A: Ratio [1]: 1.35; Activity [2]: 7.6%; Ratio [3]: 1.22; inhibition in vivo at 15 mg/kg/day [4]: 33.8%; Ratio [5]: 1.51; Activity [6]: Active; Activity [7]: Active; Activity [8]: Active; inhibition in vivo at 30 mg/kg/day [9]: 59.1%; Activity [10]: Active; Activity [11]: Active; Activity [12]: Active; Activity [13]: 6.7%; Activity [14]: Active; Activity [15]: 8.6%; Activity [16]: Active; Activity [17]: Active; inhibition [18]: inactive

Q: For `C[C@@H]1CC[C@H]2[C@@H](C)C(=O)O[C@@H]3O[C@@]4(C)CC[C@@H]1[C@]32OO4` [ARTEMISININ], which Ratio [1] is on record?
A: 1.33

Q: And the Ratio [3]?
A: 1.18

Q: What about the Ratio [5] of the same compound?
A: 1.43

Q: And the inhibition in vivo at 50 mg/kg/day [19]?
A: 54.4%

Q: Which inhibition in vivo at 30 mg/kg/day [9] does the source give for `C/C=C(/C)C(=O)O[C@H]1CC[C@]2(C)C[C@]3(O)OC(=O)C(C)=C3C[C@H]2[C@]1(C)O` here?
A: -1.9%

Q: `C/C=C(/C)C(=O)O[C@H]1CC[C@]2(C)CC(=O)[C@@H](C(C)C(=O)O)C[C@H]2[C@]1(C)O` (stereo partly drawn) was tested. Which inhibition in vivo at 30 mg/kg/day [9] did it give?
A: 3.9%

Q: How did the inhibition in vivo at 10 mg/kg/day [20] turn out when `CCN(CC)CCCC(C)Nc1ccnc2cc(Cl)ccc12` (stereo not drawn) [CHLOROQUINE PHOSPHATE] was run?
A: 97.9%

Q: Which inhibition in vivo at 30 mg/kg/day [9] does the source give for `C/C=C(/C)C(=O)O[C@H]1CC[C@]2(C)C[C@@H]3OC(=O)C(C)=C3C[C@H]2[C@]1(C)OC(C)=O` here?
A: 15%

Q: `C/C=C(/C)C(=O)O[C@H]1CC[C@]2(C)C[C@]3(O)OC(=O)C(C)=C3C[C@H]2[C@]1(C)OC(C)=O` was tested. Which inhibition in vivo at 30 mg/kg/day [9] did it give?
A: 14.5%

Q: Which inhibition in vivo at 30 mg/kg/day [9] does the source give for `C/C=C(/C)C(=O)O[C@H]1CC[C@]2(C)CC(=O)C[C@H]2[C@]1(C)OC(C)=O` here?
A: 18.5%
